The structures appear in SMILES notation. Where two headings read alike, the source gives them in different places.

This assay addresses T1, Human BCL-XL protein (N-terminal HiBiT tagged BCL-XL in HT1080 cells) (Homo sapiens, UniProt Q07817).
T1 construct: expressed in transfected cells; host or cells: HT-1080 (ATCC CCL-121), stably transduced with lentivirus pLV-UBC-N-HiBiT-BCL-XL-PGK-puro and selected with puromycin
Briefly: HiBiT based degradation assay. Format: cell-based. The settings on record: HT1080 cells expressing HiBiT-BCL-XL; for DC50: BCL-XL degradation. The source says: Human BCL-XL protein coding open reading frame fused with N-terminal HiBiT coding sequence was synthesized from Integrated DNA Technologies (IDT). Next, N-HiBiT-BCL-XL sequence was cloned into pLV-UBC-PGK-Puro, a lentivirus plasmid purchased from Vectorbuilder, to generate pLV-UBC-N-HiBiT-BCL-XL-PGK-puro. Lentiviral particles were generated from Lenti-X™ 293T cells (Clontech) by co-transfection of pLV-UBC-N-HiBiT-BCL-XL-PGK-puro plasmids and lentiviral packaging plasmid mix (Cellecta). HT-1080 [HT1080](ATCC CCL-121) cells were infected with the lentivirus, and HT1080 cells stably integrated with the lentiviral vectors were established by incubation with 1 μg/mL puromycin (Thermofisher).
HT1080 cells expressing N-terminal HiBiT tagged BCL-XL were dispensed into a 384-well plate pre-spotted with compounds at varying concentrations. Three thousand cells were seeded into each well in 40 μL of RPMI 1640 media. […] After incubation, luminescence was read on a PHERAstar FSX Plate Reader (BMG). BCL-XL degradation at each indicated concentration was normalized with the DMSO control. The BCL-XL degradation curves were plotted using a four-parameter logistic model. For compounds displaying hook effects, the curve fitting was performed using the bottom point of the hook curves (i.e., the point of Ymin) as the bottom plateau to calculate EC50.

Where [1] appears, read: BCL-XL degradation normalized with DMSO control, 24 h.

T1 sequence (Q07817 whole entry): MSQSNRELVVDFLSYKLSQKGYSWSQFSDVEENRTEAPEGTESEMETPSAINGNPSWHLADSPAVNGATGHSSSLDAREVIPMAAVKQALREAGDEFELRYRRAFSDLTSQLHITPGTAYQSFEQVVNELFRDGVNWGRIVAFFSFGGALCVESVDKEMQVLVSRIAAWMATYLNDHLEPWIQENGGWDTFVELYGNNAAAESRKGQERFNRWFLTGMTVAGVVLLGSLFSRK

As to `Cc1c(OCCC[C@@H]2CCCN(CC(=O)Nc3cccc4c(C5CCC(=O)NC5=O)nn(C)c34)C2)cccc1-c1ccc(N2CCc3cccc(C(=O)Nc4nc5ccccc5s4)c3C2)nc1C(=O)O` (single isomer, unassigned) [Compound 210a], the “Ymin (24 h)” value under setting [1] is reported as “B (50% ≤ Ymin < 70%)”. For the same molecule, the DC50 (24 h, read-out: EC50 (24 h)) was less than 100 nM.
As to `Cc1c(OCCC[C@H]2CCCN(CC(=O)Nc3cccc4c(C5CCC(=O)NC5=O)nn(C)c34)C2)cccc1-c1ccc(N2CCc3cccc(C(=O)Nc4nc5ccccc5s4)c3C2)nc1C(=O)O` (single isomer, unassigned) [Compound 210b], the “Ymin (6 h)” value (BCL-XL degradation normalized with DMSO control, 6 h) was “C (Ymin ≥ 70%)”. Moreover, the “Ymin (24 h)” value under setting [1] is listed as “C (Ymin ≥ 70%)”. Moreover, the DC50 was 1000 to 10000 nM (6 h, read-out: EC50 (6 h)) and less than 100 nM (24 h, read-out: EC50 (24 h)).
For `Cc1c(OC[C@H]2CCC3(CCN(CC(=O)Nc4ccc5c(C6CCC(=O)NC6=O)nn(C)c5c4)CC3)C2)cccc1-c1ccc(N2CCc3cccc(C(=O)Nc4nc5ccccc5s4)c3C2)nc1C(=O)O` (single isomer, unassigned) [Compound 262a], the “Ymin (24 h)” value under setting [1] is on record as “A (Ymin < 50%)”. Moreover, the DC50 (24 h, read-out: EC50 (24 h)) was less than 100 nM.
In the same order, the values of `Cc1c(OC[C@@H]2CCC3(CCN(CC(=O)Nc4ccc5c(C6CCC(=O)NC6=O)nn(C)c5c4)CC3)C2)cccc1-c1ccc(N2CCc3cccc(C(=O)Nc4nc5ccccc5s4)c3C2)nc1C(=O)O` (single isomer, unassigned) [Compound 262b] are “A (Ymin < 50%)” and less than 100 nM.
As for `Cc1c(OC[C@H](C)CC2CCN(CC(=O)Nc3ccc4c(C5CCC(=O)NC5=O)nn(C)c4c3)CC2)cccc1-c1ccc(N2CCc3cccc(C(=O)Nc4nc5ccccc5s4)c3C2)nc1C(=O)O` (single isomer, unassigned) [Compound 263a], the “Ymin (24 h)” value under setting [1] was “B (50% ≤ Ymin < 70%)”. Besides, the DC50 (24 h, read-out: EC50 (24 h)) was less than 100 nM.
In the same order, the values of `Cc1c(OC[C@@H](C)CC2CCN(CC(=O)Nc3ccc4c(C5CCC(=O)NC5=O)nn(C)c4c3)CC2)cccc1-c1ccc(N2CCc3cccc(C(=O)Nc4nc5ccccc5s4)c3C2)nc1C(=O)O` (single isomer, unassigned) [Compound 263b] are “A (Ymin < 50%)” and less than 100 nM.
On the same counts, the results for `Cc1cc(OCC[C@@H](C)C2CCN(CC(=O)Nc3ccc4c(C5CCC(=O)NC5=O)nn(C)c4c3)CC2)ccc1-c1ccc(N2CCc3cccc(C(=O)Nc4nc5ccccc5s4)c3C2)nc1C(=O)O` (single isomer, unassigned) [Compound 266a] are “A (Ymin < 50%)” and less than 100 nM.
As to `Cc1cc(OCC[C@H](C)C2CCN(CC(=O)Nc3ccc4c(C5CCC(=O)NC5=O)nn(C)c4c3)CC2)ccc1-c1ccc(N2CCc3cccc(C(=O)Nc4nc5ccccc5s4)c3C2)nc1C(=O)O` (single isomer, unassigned) [Compound 266b], under setting [1], the “Ymin (24 h)” value is given as “A (Ymin < 50%)”. The DC50 (24 h, read-out: EC50 (24 h)) is less than 100 nM.
On the same counts, the results for `Cc1c(O[C@H]2CCC3(CCN(CC(=O)Nc4ccc5c(C6CCC(=O)NC6=O)nn(C)c5c4)CC3)C2)cccc1-c1ccc(N2CCc3cccc(C(=O)Nc4nc5ccccc5s4)c3C2)nc1C(=O)O` (single isomer, unassigned) [Compound 268a] are “A (Ymin < 50%)” and less than 100 nM.
On to `Cc1c(O[C@@H]2CCC3(CCN(CC(=O)Nc4ccc5c(C6CCC(=O)NC6=O)nn(C)c5c4)CC3)C2)cccc1-c1ccc(N2CCc3cccc(C(=O)Nc4nc5ccccc5s4)c3C2)nc1C(=O)O` (single isomer, unassigned) [Compound 268b], for which, under setting [1], the “Ymin (24 h)” value is on record as “A (Ymin < 50%)”. Moreover, the DC50 (24 h, read-out: EC50 (24 h)) is less than 100 nM.
In the same order, the values of `Cc1cc(OC[C@H](C)CC2CCN(CC(=O)Nc3ccc4c(C5CCC(=O)NC5=O)nn(C)c4c3)CC2)ccc1-c1ccc(N2CCc3cccc(C(=O)Nc4nc5ccccc5s4)c3C2)nc1C(=O)O` (single isomer, unassigned) [Compound 271a] are “A (Ymin < 50%)” and less than 100 nM.
With `Cc1c(OCC[C@@H]2CCC3(CCN(CC(=O)Nc4ccc5c(C6CCC(=O)NC6=O)nn(C)c5c4)CC3)C2)cccc1-c1ccc(N2CCc3cccc(C(=O)Nc4nc5ccccc5s4)c3C2)nc1C(=O)O` (single isomer, unassigned) [Compound 272b, 6-(8-(benzo[d]thiazol-2-ylcarbamoyl)-3,4-dihydro-isoquinolin-2(1 h)-yl)-3-(3-(2-((2r)-8-(2-((3-(2,6-dioxopiperidin-3-yl)-1-methyl-1 h-indazol-6-yl)amino)-2-oxoethyl)-8-azaspiro[4.5]decan-2-yl)ethoxy)-2-methylphenyl)picolinic acid], under setting [1], the “Ymin (24 h)” value was “A (Ymin < 50%)”. For the same molecule, the DC50 (24 h, read-out: EC50 (24 h)) is less than 100 nM.
In the case of `Cc1c(O[C@H]2CC[C@H](CC[C@H](C)N3CCN(c4ccc5c(C6CCC(=O)NC6=O)nn(C)c5c4)CC3)CC2)cccc1-c1ccc(N2CCc3cccc(C(=O)Nc4nc5ccccc5s4)c3C2)nc1C(=O)O` (single isomer, unassigned) [Compound 281a], under setting [1], the “Ymin (24 h)” value is reported as “A (Ymin < 50%)”. Also, where the note is “24 h, read-out: EC50 (24 h)”, the DC50 was less than 100 nM.
In the same order, the values of `Cc1c(O[C@H]2CC[C@H](CC[C@@H](C)N3CCN(c4ccc5c(C6CCC(=O)NC6=O)nn(C)c5c4)CC3)CC2)cccc1-c1ccc(N2CCc3cccc(C(=O)Nc4nc5ccccc5s4)c3C2)nc1C(=O)O` (single isomer, unassigned) [Compound 281b] are “A (Ymin < 50%)” and less than 100 nM.
With `Cc1c(O[C@H]2CC[C@H](C[C@@H](C)CN3CCN(c4ccc5c(C6CCC(=O)NC6=O)nn(C)c5c4)CC3)CC2)cccc1-c1ccc(N2CCc3cccc(C(=O)Nc4nc5ccccc5s4)c3C2)nc1C(=O)O` (single isomer, unassigned) [Compound 282a], under setting [1], the “Ymin (24 h)” value was “A (Ymin < 50%)”. Further, where the note is “24 h, read-out: EC50 (24 h)”, the DC50 is less than 100 nM.
In the same order, the values of `Cc1c(O[C@H]2CC[C@H](C[C@H](C)CN3CCN(c4ccc5c(C6CCC(=O)NC6=O)nn(C)c5c4)CC3)CC2)cccc1-c1ccc(N2CCc3cccc(C(=O)Nc4nc5ccccc5s4)c3C2)nc1C(=O)O` (single isomer, unassigned) [Compound 282b, 6-(8-(benzo[d]thiazol-2-ylcarbamoyl)-3,4-dihydroisoquinolin-2(1H)-yl)-3-(3-(((1S,4r)-4-((2S*)-3-(4-(3-(2,6-dioxopiperidin-3-yl)-1-methyl-1H-indazol-6-yl)piperazin-1-yl)-2-methylpropyl)cyclohexyl)oxy)-2-methylphenyl)picolinic acid] are “A (Ymin < 50%)” and less than 100 nM.
In the same order, the values of `Cc1c(O[C@H]2CC[C@H](CC[C@H](C)N3CCN(c4cccc5c(C6CCC(=O)NC6=O)nn(C)c45)CC3)CC2)cccc1-c1ccc(N2CCc3cccc(C(=O)Nc4nc5ccccc5s4)c3C2)nc1C(=O)O` (single isomer, unassigned) [Compound 283a] are “A (Ymin < 50%)” and less than 100 nM.
In the same order, the values of `Cc1c(O[C@H]2CC[C@H](CC[C@@H](C)N3CCN(c4cccc5c(C6CCC(=O)NC6=O)nn(C)c45)CC3)CC2)cccc1-c1ccc(N2CCc3cccc(C(=O)Nc4nc5ccccc5s4)c3C2)nc1C(=O)O` (single isomer, unassigned) [Compound 283b] are “A (Ymin < 50%)” and less than 100 nM.
As to `Cc1c(O[C@H]2CC[C@H](C[C@H](C)CN3CCN(c4cccc5c(C6CCC(=O)NC6=O)nn(C)c45)CC3)CC2)cccc1-c1ccc(N2CCc3cccc(C(=O)Nc4nc5ccccc5s4)c3C2)nc1C(=O)O` (single isomer, unassigned) [Compound 284a], the “Ymin (24 h)” value under setting [1] is “A (Ymin < 50%)”. Moreover, the DC50 (24 h, read-out: EC50 (24 h)) was less than 100 nM.
In the same order, the values of `Cc1c(O[C@H]2CC[C@H](C[C@@H](C)CN3CCN(c4cccc5c(C6CCC(=O)NC6=O)nn(C)c45)CC3)CC2)cccc1-c1ccc(N2CCc3cccc(C(=O)Nc4nc5ccccc5s4)c3C2)nc1C(=O)O` (single isomer, unassigned) [Compound 284b, 6-(8-(benzo[d]thiazol-2-ylcarbamoyl)-3,4-dihydroisoquinolin-2(1H)-yl)-3-(3-(((1R,4r)-4-((2R*)-3-(4-(3-(2,6-dioxopiperidin-3-yl)-1-methyl-1H-indazol-7-yl)piperazin-1-yl)-2-methylpropyl)cyclohexyl)oxy)-2-methylphenyl)picolinic acid] are “A (Ymin < 50%)” and less than 100 nM.
Turning to `Cc1c(OCC[C@@H]2CC23CCN(CC(=O)Nc2ccc4c(C5CCC(=O)NC5=O)nn(C)c4c2)CC3)cccc1-c1ccc(N2CCc3cccc(C(=O)Nc4nc5ccccc5s4)c3C2)nc1C(=O)O` (single isomer, unassigned) [Compound 289a], the “Ymin (24 h)” value under setting [1] is “A (Ymin < 50%)”. Under “24 h, read-out: EC50 (24 h)”, the DC50 was less than 100 nM.
Consider `Cc1c(O[C@H]2CC[C@H](C[C@H](C)CCN3CCN(c4ccc5c(C6CCC(=O)NC6=O)nn(C)c5c4)CC3)CC2)cccc1-c1ccc(N2CCc3cccc(C(=O)Nc4nc5ccccc5s4)c3C2)nc1C(=O)O` (single isomer, unassigned) [Compound 307a], for which the “Ymin (24 h)” value under setting [1] is “A (Ymin < 50%)”. Also, the DC50 (24 h, read-out: EC50 (24 h)) was less than 100 nM.

The values are drawn from patent US20240238423A9, “TETRAHYDROISOQUINOLINE HETEROBIFUNCTIONAL BCL-XL DEGRADERS” (Treeline Biosciences, Inc., priority 2022, published 2024).
